From patent publication US12180207B2 (ARRAY BIOPHARMA INC., priority 2018, dated 2024)

How the values were obtained:
dephosphorylated FGFR2 = dephosphorylated FGFR2 (Homo sapiens (Human), UniProt P21802); test: FGFR enzyme binding assay (HTRF tracer displacement), FGFR2; conditions: 5 nM dephosphorylated FGFR2, average of multiple determinations if made
Experimental: The potency of compounds inhibiting human isoforms of FGFR kinase was determined using Life Technologies' Homogeneous Time Resolved Fluorescence (HTRF)-based binding assay technology. […] After a 60 minute incubation at 22° C., the extent of tracer displacement was determined using a PerkinElmer EnVision multimode plate reader via HTRF dual wavelength detection, and the percent of control (POC) was calculated using a ratiometric emission factor. One hundred POC was determined using no test compound, and 0 POC was determined in the presence of 1 μM of an appropriate control inhibitor.

[1] = target: HEK-293 cells transfected with dox-inducible human wild type FGFR3 (Homo sapiens (Human), UniProt P22607); test: FGFR3 pFGFR cell assay (ELISA); assay type: cell-based; conditions: HEK-293 dox-inducible FGFR3, 1 hour compound, 100 ng/ml FGF-acidic
In short: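 Doxycycline-induced (1 μg/ml) HEK-293 cells expressing wild-type human FGFR3, treated 1 h with compound (1:3 series, top final 5 μM), then stimulated 5 min with 100 ng/ml FGF-acidic. Phospho-FGFR3 measured by ELISA (total FGFR3 capture, phosphotyrosine detection, OD 450 nm); IC50 from 4-parameter fit of POC values.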

dephosphorylated FGFR2, sequence (P21802 22-821): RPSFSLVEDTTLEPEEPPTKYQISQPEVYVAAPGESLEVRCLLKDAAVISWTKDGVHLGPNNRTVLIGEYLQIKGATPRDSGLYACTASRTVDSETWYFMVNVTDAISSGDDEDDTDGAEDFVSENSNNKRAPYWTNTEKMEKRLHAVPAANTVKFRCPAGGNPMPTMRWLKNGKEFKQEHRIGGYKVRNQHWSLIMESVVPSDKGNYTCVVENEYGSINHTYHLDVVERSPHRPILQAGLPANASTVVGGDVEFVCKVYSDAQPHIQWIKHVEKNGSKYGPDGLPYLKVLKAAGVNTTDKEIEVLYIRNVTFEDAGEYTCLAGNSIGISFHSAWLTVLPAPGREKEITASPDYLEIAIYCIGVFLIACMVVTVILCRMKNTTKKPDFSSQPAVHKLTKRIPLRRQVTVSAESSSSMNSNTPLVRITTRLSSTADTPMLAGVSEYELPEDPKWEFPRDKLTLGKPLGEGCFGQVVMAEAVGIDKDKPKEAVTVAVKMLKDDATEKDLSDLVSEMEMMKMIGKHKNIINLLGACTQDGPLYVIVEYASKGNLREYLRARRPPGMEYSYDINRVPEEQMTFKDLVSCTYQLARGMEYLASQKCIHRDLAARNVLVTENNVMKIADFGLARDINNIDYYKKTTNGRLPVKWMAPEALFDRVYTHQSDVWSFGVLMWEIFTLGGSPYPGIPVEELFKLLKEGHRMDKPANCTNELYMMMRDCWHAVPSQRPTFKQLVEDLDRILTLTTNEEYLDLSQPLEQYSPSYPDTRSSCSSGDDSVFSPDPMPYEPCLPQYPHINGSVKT
HEK-293 cells transfected with dox-inducible human wild type FGFR3, sequence (P22607 23-806): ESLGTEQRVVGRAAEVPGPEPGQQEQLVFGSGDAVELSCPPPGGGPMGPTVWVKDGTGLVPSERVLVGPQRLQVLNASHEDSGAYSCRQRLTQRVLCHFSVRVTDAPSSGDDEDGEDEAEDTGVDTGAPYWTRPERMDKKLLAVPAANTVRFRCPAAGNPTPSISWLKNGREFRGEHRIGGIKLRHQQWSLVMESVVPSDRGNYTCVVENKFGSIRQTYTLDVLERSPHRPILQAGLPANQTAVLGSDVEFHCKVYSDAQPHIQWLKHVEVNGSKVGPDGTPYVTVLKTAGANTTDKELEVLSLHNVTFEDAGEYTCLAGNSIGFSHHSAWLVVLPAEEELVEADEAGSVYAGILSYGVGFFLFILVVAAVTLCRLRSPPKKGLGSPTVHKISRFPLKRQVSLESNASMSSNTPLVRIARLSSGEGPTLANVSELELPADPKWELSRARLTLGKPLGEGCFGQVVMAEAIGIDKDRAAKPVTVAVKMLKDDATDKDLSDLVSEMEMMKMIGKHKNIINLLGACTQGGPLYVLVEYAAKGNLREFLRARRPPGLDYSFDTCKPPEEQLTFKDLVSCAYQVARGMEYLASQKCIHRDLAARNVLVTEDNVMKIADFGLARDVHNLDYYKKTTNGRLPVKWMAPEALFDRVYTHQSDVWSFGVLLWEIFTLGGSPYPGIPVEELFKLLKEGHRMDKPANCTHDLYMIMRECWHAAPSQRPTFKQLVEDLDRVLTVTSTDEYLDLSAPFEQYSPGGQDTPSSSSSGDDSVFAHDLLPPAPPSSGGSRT

Structure (SMILES) | IC50 (dephosphorylated FGFR2) [nM] | IC50 [1] [nM]
COc1cc(-c2cnn(C3CCN(CC4(OC)CN(C(=O)/C=C/CN(C)C)C4)CC3)c2C)cn2ncc(Cl)c12 [Example 173, (E)-1-(3-((4-(4-(3-chloro-4-methoxypyrazolo [1,5-a]pyridin-6-yl)-5-methyl-1H-pyrazol-1-yl)piperidin-1-yl)methyl)-3-methoxyazetidin-1-yl)-4-(dimethylamino)but-2-en-1-one] | 45 | –
C=CC(=O)N1CC(CN2CCC(n3ncc(-c4cc(OC)c5c(Cl)cnn5c4)c3C)CC2)C1(C)C (stereo not shown) [Example 120, 1-(3-((4-(4-(3-chloro-4-methoxypyrazolo[1,5-a]pyridin-6-yl)-5-methyl-1H-pyrazol-1-yl)piperidin-1-yl)methyl)-2,2-dimethylazetidin-1-yl)prop-2-en-1-one] | 84 | –
COC/C=C/C(=O)N1CC(F)(C(=O)N2CCC(n3ncc(-c4cc(OC)c5c(C#N)cnn5c4)c3C)CC2)C1 [Example 154, (E)-6-(1-(1-(3-fluoro-1-(4-methoxybut-2-enoyl)azetidine-3-carbonyl)piperidin-4-yl)-5-methyl-1H-pyrazol-4-yl)-4-methoxypyrazolo [1,5-a]pyridine-3-carbonitrile] | 69 | –
C=CC(=O)N1CC(CN2CCC(n3ncc(-c4cc(OC)c5c(Cl)cnn5c4)c3C)CC2)(OC)C1 [Example 119, 1-(3-((4-(4-(3-chloro-4-methoxypyrazolo[1,5-a]pyridin-6-yl)-5-methyl-1H-pyrazol-1-yl)piperidin-1-yl)methyl)-3-methoxyazetidin-1-yl)prop-2-en-1-one] | 60 | –
C=CC(=O)N1CC(C(=O)N2CCC3(C2)CN(c2ccc(-c4cc(OC)c5c(C#N)cnn5c4)cn2)C3)C1 [Example 103, 6-(6-(6-(1-acryloylazetidine-3-carbonyl)-2,6-diazaspiro[3.4]octan-2-yl)pyridin-3-yl)-4-methoxypyrazolo[1,5-a]pyridine-3-carbonitrile] | 39 | –
C=CC(=O)N1CC(C(=O)N2C[C@H]3C[C@@H]2CN3c2ccc(-c3cc(OC)c4c(C#N)cnn4c3)cn2)C1 [Example 107, 6-(6-((1R,4R)-5-(1-acryloylazetidine-3-carbonyl)-2,5-diazabicyclo[2.2.1]heptan-2-yl)pyridin-3-yl)-4-methoxypyrazolo[1,5-a]pyridine-3-carbonitrile] | 56 | –
COc1cc(-c2ccc(N3CCN(C(=O)C4(F)CN(C(=O)/C=C/CN(C)C)C4)CC3)nc2C)cn2ncc(C#N)c12 [Example 168, (E)-6-(6-(4-(1-(4-(dimethylamino)but-2-enoyl)-3-fluoroazetidine-3-carbonyl)piperazin-1-yl)-2-methylpyridin-3-yl)-4-methoxypyrazolo [1,5-a]pyridine-3-carbonitrile] | 219 | –
COc1cc(-c2cnn(C3CCN(C(=O)C4(OC)CN(C(=O)/C=C/CN(C)C)C4)CC3)c2C)cn2ncc(Cl)c12 [Example 171, (E)-1-(3-(4-(4-(3-chloro-4-methoxypyrazolo [1,5-a]pyridin-6-yl)-5-methyl-1H-pyrazol-1-yl)piperidine-1-carbonyl)-3-methoxyazetidin-1-yl)-4-(dimethylamino)but-2-en-1-one] | 41 | –
COc1cc(-c2nn(C3CCN(C(=O)C4(F)CN(C(=O)/C=C/CN(C)C)C4)CC3)nc2C)cn2ncc(C#N)c12 [Example 163, (E)-6-(2-(1-(1-(4-(dimethylamino)but-2-enoyl)-3-fluoroazetidine-3-carbonyl)piperidin-4-yl)-5-methyl-2H-1,2,3-triazol-4-yl)-4-methoxypyrazolo [1,5-a]pyridine-3-carbonitrile] | 125 | –
C=CC(=O)N(C)c1ccc(C(=O)N2CCC(n3cc(-c4cc(OC)c5c(C#N)cnn5c4)cn3)CC2)cc1 [Example 178, N-(4-(4-(4-(3-cyano-4-methoxypyrazolo[1,5-a]pyridin-6-yl)-1H-pyrazol-1-yl)piperidine-1-carbonyl)phenyl)-N-methylacrylamide] | – | 44
C=CS(=O)(=O)N1CCC(C(=O)N2CCC(n3cc(-c4cc(OC)c5c(C#N)cnn5c4)cn3)CC2)CC1 [Example 186, 4-methoxy-6-(1-(1-(1-(vinylsulfonyl)piperi-dine-4-carbonyl)piperidin-4-yl)-1H-pyrazol-4-yl)pyrazolo[1,5-a]pyridine-3-carbonitrile] | – | 6
C=CC(=O)N1CC(S(=O)(=O)N2CCC(n3cc(-c4cc(OC)c5c(C#N)cnn5c4)cn3)CC2)C1 [Example 134, 6-(1-(1-((1-acryloylazetidin-3-yl)sulfonyl)piperidin-4-yl)-1H-pyrazol-4-yl)-4-methoxypyrazolo[1,5-a]pyridine-3-carbonitrile] | – | 12

Next, values leading:

IC50 (dephosphorylated FGFR2) [nM] | IC50 [1] [nM] | Structure (SMILES)
16 | – | C=CC(=O)N1CC(F)(C(=O)N2CCN(c3ccc(-c4cc(OC)c5c(C#N)cnn5c4)cn3)CC2)C1 [Example 112, 6-(6-(4-(1-acryloyl-3-fluoroazetidine-3-carbonyl)piperazin-1-yl)pyridin-3-yl)-4-methoxypyrazolo[1,5-a]pyridine-3-carbonitrile]
20 | – | COc1cc(-c2cnn(C3CCN(C(=O)C4CN(C(=O)/C=C/CN5CCOCC5)C4)CC3)c2)cn2ncc(C#N)c12 [Example 184, (E)-4-methoxy-6-(1-(1-(1-(4-morpholinobut-2-enoyl)azetidine-3-carbonyl)piperidin-4-yl)-1H-pyrazol-4-yl)pyrazolo[1,5-a]pyridine-3-carbonitrile]
18 | – | COc1cc(-c2cnn(C3CCN(C(=O)C4CN(C(=O)/C=C/CO)C4)CC3)c2)cn2ncc(C#N)c12 [Example 141, (E)-6-(1-(1-(1-(4-hydroxybut-2-enoyl)azetidine-3-carbonyl)piperidin-4-yl)-1H-pyrazol-4-yl)-4-methoxypyrazolo [1,5-a]pyridine-3-carbonitrile]
12 | – | COc1cc(-c2cnn(C3CCN(C(=O)C4CN(C(=O)/C=C/CCl)C4)CC3)c2)cn2ncc(C#N)c12 [Example 181, (E)-6-(1-(1-(1-(4-chlorobut-2-enoyl)azetidine-3-carbonyl)piperidin-4-yl)-1H-pyrazol-4-yl)-4-methoxypyrazolo[1,5-a]pyridine-3-carbonitrile]
6 | – | COc1cc(-c2cnn(C3CCN(C(=O)C4CN(C(=O)C#CCO)C4)CC3)c2)cn2ncc(C#N)c12 [Example 179, 6-(1-(1-(1-(4-hydroxybut-2-ynoyl)azetidine-3-carbonyl)piperidin-4-yl)-1H-pyrazol-4-yl)-4-methoxypyrazolo[1,5-a]pyridine-3-carbonitrile]
15 | – | COc1cc(-c2cnn(C3CCN(C(=O)C4CN(C(=O)/C=C/CN5CC[C@H](F)C5)C4)CC3)c2)cn2ncc(C#N)c12 [Example 182, (S,E)-6-(1-(1-(1-(4-(3-fluoropyrrolidin-1-yl)but-2-enoyl)azetidine-3-carbonyl)piperidin-4-yl)-1H-pyrazol-4-yl)-4-methoxypyrazolo[1,5-a]pyridine-3-carbonitrile]
33 | – | COc1cc(-c2cnn(C3CN(C(=O)C4(F)CN(C(=O)/C=C/CN(C)C)C4)C3)c2C)cn2ncc(C#N)c12 [Example 160, (E)-6-(1-(1-(1-(4-(dimethylamino)but-2-enoyl)-3-fluoroazetidine-3-carbonyl)azetidin-3-yl)-5-methyl-1H-pyrazol-4-yl)-4-methoxypyrazolo [1,5-a]pyridine-3-carbonitrile]
